Measurements reported in patent US20040265350A1, “Use of a porous carrier” (priority 2000, published 2004).
“Also recorded” adds a separate entry of the source.

Assays:
[1] = Leaching of [Fe(phen)3][ClO4]2 from HA blocks into distilled water, UV-Vis at 512 nm; assay type: physicochemical
Excerpt: Leaching with stirring of solutions to avoid inaccuracies due to concentration gradients. (According to present arrangements however some anomalies may result from occasional jarring of the block by the magnetic follower).
Half of the block prepared in method 3 was immersed in distilled water (30 cm3) and the absorbance recorded by UV-Vis spectrometry at wavelength 512 nm. An extinction coefficient of 10,620 mol^−1 dm^3 cm^−1 was used in all calculations.
Vacuum method 3 was used for loading the compounds onto HA, again blocks of porosity 83.35% (0006) were used with approximate dimensions, 20×20×15mm, weight 3.6-3.8 g. […] […] Again the blocks were dried in the oven. (In order to fully dissolve the polymer in acetronitrile stirring for up to 1 hour is required before loading).
All leaching experiments were undertaken using the cut halves of the loaded blocks with distilled water (30 cm3) and constant stirring. […] This buoyancy is likely to be due to the polymer blocking pores in the HA trapping air inside the block. […] Again absorbance at λ 512 nm was recorded at appropriate intervals. [formula]

[2] = Solubility seen while preparing loading solutions; assay type: physicochemical
Excerpt: After drying the block in an oven overnight the vacuum method was again used to inject a solution of PLG (85:15) (0.105 g) in acetonitrile (50 cm^3). Again the block was oven dried overnight.

[3] = Leaching of cis-platin from HA block into distilled water, absorbance at 206 nm; assay type: physicochemical
Protocol: No yellow colour was observed within the block.
Leaching experiments were carried out in distilled water (35 cm^3) with stirring, in the absence of light and closed to prevent evaporation. Absorbance was recorded at λ 206 nm at appropriate intervals and all caclulations required the extinction coefficient 3057 mol^−1 dm^3 cm^−1. [formula]

[4] = tested on: human osteosarcoma like cells(HOS); test: MTT assay of cell proliferation, HOS cells; assay type: cell-based
Excerpt: (§1) Two osteosarcoma cell lines and primary human osteoblasts were used in the cell culture studies of the effect of increased MTX concentration and duration time. The MG63 cells were obtained from a […] (ATCC-CRL-1427). The human osteosarcoma like cells(HOS) cells were obtained from a […] (ATCC-CRL-1543). The human osteoblast like cells(HOB) were isolated from patients undergoing total knee replacement. The cell lines were each cultured in complete Dulbecco's Modified Eagle's Medium (DMEM) (Gibco, UK) supplemented with 10% foetal calf serum (FCS) (Gibco, UK), non essential amino acids (1%), ascorbic acid (150˜g/ml), L glutamine (0.02M), HEPES (0.01M), penicillin (100 units/ml) and streptomycin (100˜g/ml), at 37° C. and 5% CO2 in a 99% humidified sterile atmosphere. The medium was changed at least twice a week to prevent nutrient depletion-and waste product accumulation.
(§2) Once the cells had become confluent, they were removed by emptying the medium, washing with 10 ml PBS and adding 5 ml of 0.25% Trypsin and incubating at 37° C. […] Next the cells were counted under a light microscope and concentrations of 13.2×10^4 cells/ml made up. […]
(§3) The effects of MTX on the proliferation of ostersarcoma cells was measured by MTT assay. […] The absorbance of each well was then read by a Dynatech microplate reader (BioRad Model 3550) at a wavelength of 595 nm and 5 sec mixing time. […]

[5] = Leaching of MTX from HA discs with or without PLG; assay type: physicochemical
Protocol: Initially the release of MTX from HA using the polymer PLG (75:25) was performed to establish whether this polymer {which is expected to degrade at a slower rate than PLG (50:50)} induced a slowed rate of release of MTX. HA discs from the second batch were used for the experiment and approximately the same quantities of MTX, PLG and acetonitrile were used. The experiment was labelled as follows; IA and IB were loaded by centrifugation and IB contains polymer, IC and ID were loaded by the vacuum technique and ID contains polymer. The following results-were obtained [formula]

[6] = tested on: MG63 cells; test: MTT assay of cell proliferation, MG63 cells; assay type: cell-based, human
Excerpt: as §1, §2, §3

[7] = tested on: osteosarcoma cells; settings: 5 mM MTX; cited from earlier work
[8] = tested on: human osteoblast like cells(HOB); test: MTT assay of cell proliferation, HOB cells; assay type: cell-based
Excerpt: as §1, §2, §3

[9] = tested on: osteoblast cells; settings: 5 mM MTX; cited from earlier work
[10] = Leaching of Prednisolone from HA discs with or without PLG; assay type: physicochemical; settings: presence of PLG (50:50)
Protocol: Serial dilution experiments were performed to obtain the following calibration chart and equation for Prednisolone. [formula]
Four HA discs from the second batch were used for these experiments. Approximately […] of Prednisolone was used in each of the acetonitrile solutions. The experiments were labelled 1AA, 1BB, 1CC and 1DD. 1M and 1BB were loaded by centrifugation and 1BB contained 0.1 g of PLG (50:50). 1CC and 1DD were loaded using the vacuum technique and 1DD contained 0.1 g of PLG (50:50). The standard leaching experiments were carried out and the results presented below. [formula]

[11] = block loaded with complex and PLG (50:50)
[12] = 1 day exposure, MTX 0.1 to 1000 μg/ml
[13] = 3 day exposure, same concentrations

For “Iron(II) Tris Phenanthrolin Perchlorate [[Fe(phen)3][ClO4]2]”, the “time after which almost all complex is released from the block” value ([1]; block loaded by vacuum method 3 from methanol, no polymer, distilled water, stirring) was 170 min, the “effect of PLG impregnation on release of complex” value [1, 11] was “dramatically slows the release” and the “time at which continuing release of complex is still observed” value [1, 11] was over 5 days. The “effect of PLG impregnation on release of complex” value ([1]; block loaded with complex and PLG (50:50), listed as Iron Tris Phen) was “significantly slows the release”, the “time after which approximately all / the majority of complex is released” value ([1]; control block loaded from acetonitrile, no PLG) was 300 min and the “further quantity released after solution replaced with distilled water” value ([1]; method 3 block, replaced after 330 minutes, read after a further 20 hours) was 0.14 mg. For the same compound, the “release profile of complex from the block” value ([1]; no polymer) was “two phases; also recorded: initial burst”.
With Poly(DL-Lactide-co-Glycolide) [PLG] the solubility in methanol [2] was “not soluble” and the solubility in water [2] was “not soluble”.
With `N.N.[Cl][Pt][Cl]` [cis-platin] the “time after which almost the entire drug / the majority is released from HA” value ([3]; no polymer, distilled water, stirring, dark) was 45 min and the “effect of PLG on release of cis-platin from HA” value ([3]; presence of PLG (50:50)) was “slowed”.
In the case of `CN(Cc1cnc2nc(N)nc(N)c2n1)c1ccc(C(=O)N[C@@H](CCC(=O)O)C(=O)O)cc1` [MTX, Methotrexate], the “cell proliferation (MTT)” value [4, 12] is reported as “only a small decrease in proliferation”, the “cell proliferation (MTT)” value [4, 13] is reported as “reduced level of cell proliferation compared with the 1 day exposure samples” and the “effect of PLG (50:50) on release of MTX from HA” value ([5]; presence of PLG (50:50), weighted discs) is reported as “slower release rate”. The “effect of PLG (75:25) on release of MTX from HA” value ([5]; presence of PLG (75:25)) was “does slow the release”, the “cell proliferation (MTT)” value ([6]; MG63, 1 day exposure, MTX 0.1 to 1000 μg/ml) was “decrease in proliferation as MTX concentration rose” and the “cell proliferation (MTT)” value ([6]; MG63, 3 day exposure, rising MTX concentration) was “erratic behaviour; also recorded: affected only slightly”. The “decrease in proliferation of osteosarcoma cells” value [7] was 90%, the “cell proliferation (MTT)” value [8, 12] was “decrease in proliferation as MTX concentration rose” and the “cell proliferation (MTT)” value [8, 13] was “reduced level of cell proliferation compared with the 1 day exposure samples; also recorded: affected to a similar degree to the HOS cells”. For the same compound, the “decrease in proliferation of osteoblast cells” value [9] was 30%.
With `C[C@]12C=CC(=O)C=C1CC[C@@H]1[C@@H]2[C@@H](O)C[C@@]2(C)[C@H]1CC[C@]2(O)C(=O)CO` [Prednisolone] the solubility in acetonitrile ([2]; acetonitrile) was “dissolves” and the “effect of polymer on release of Prednisolone from HA” value [10] was “slowed”.
